ChEMBL document CHEMBL1201862, “PubChem BioAssay data set” (2004)
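96-well plates; 48 h exposure; 5 concentrations. Endpoints by linear interpolation between flanking doses. Not reached: highest tested concentration assigned. The concentration for 50% growth inhibition is given as GI50.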 The source made the active and inactive calls. Rule as the data show it: active = GI50 up to about 1.1 µM and inactive = higher.

Tests used:
Test in all cases: growth of human tumour cells (NCI), 48 h
786-0 = system: 786-0
A498 = system: A498
A549 = system: A549
ACHN = system: ACHN
CCRF-CEM = system: CCRF-CEM
COLO 205 = system: COLO 205
DU-145 = system: DU-145
EKVX = system: EKVX
HCT-116 = system: HCT-116
HCT-15 = system: HCT-15
HOP-62 = system: HOP-62
HOP-92 = system: HOP-92
HT-29 = system: HT-29
Hs-578T = system: Hs-578T
IGROV-1 = system: IGROV-1
K562 = system: K562
KM12 = system: KM12
LOX IMVI = system: LOX IMVI
M14 = system: M14
MCF7 = system: MCF7
MDA-MB-231 = system: MDA-MB-231
MDA-MB-435 = system: MDA-MB-435
MDA-N = system: MDA-N
MOLT-4 = system: MOLT-4
NCI-H226 = system: NCI-H226
NCI-H23 = system: NCI-H23
NCI/ADR-RES = system: NCI/ADR-RES
OVCAR-3 = system: OVCAR-3
OVCAR-4 = system: OVCAR-4
OVCAR-5 = system: OVCAR-5
OVCAR-8 = system: OVCAR-8
PC-3 = system: PC-3
RPMI-8226 = system: RPMI-8226
SF-268 = system: SF-268
SF-295 = system: SF-295
SK-MEL-28 = system: SK-MEL-28
SK-MEL-2 = system: SK-MEL-2
SK-MEL-5 = system: SK-MEL-5
SK-OV-3 = system: SK-OV-3
SN12C = system: SN12C
SNB-19 = system: SNB-19
SNB-75 = system: SNB-75
SR = system: SR
SW-620 = system: SW-620
U-251 = system: U-251
UACC-257 = system: UACC-257
UACC-62 = system: UACC-62
UO-31 = system: UO-31
CAKI-1 = system: CAKI-1
HL-60 = system: HL-60
Malme-3M = system: Malme-3M
NCI-H460 = system: NCI-H460
NCI-H522 = system: NCI-H522
T47D = system: T47D
HCC 2998 = system: HCC 2998
RXF 393 = system: RXF 393
TK-10 = system: TK-10

Question: Which GI50 (786-0) does the source give for `O=C1/C(=C/c2ccccc2)NC(=S)N1CN1CCCCC1` here?
Answer: > 100 µM (inactive)

Question: What about the GI50 (A498) of the same compound?
Answer: 99.5 µM (inactive)

Question: And the GI50 (A549)?
Answer: > 100 µM (inactive)

Question: What about the GI50 (ACHN) of the same compound?
Answer: > 100 µM (inactive)

Question: And the GI50 (CCRF-CEM)?
Answer: > 100 µM (inactive)

Question: And the GI50 (COLO 205)?
Answer: > 100 µM (inactive)

Question: What about the GI50 (DU-145) of the same compound?
Answer: > 100 µM (inactive)

Question: What about the GI50 (EKVX) of the same compound?
Answer: > 100 µM (inactive)

Question: What about the GI50 (HCT-116) of the same compound?
Answer: > 100 µM (inactive)

Question: What about the GI50 (HCT-15) of the same compound?
Answer: > 100 µM

Question: What about the GI50 (HOP-62) of the same compound?
Answer: > 100 µM (inactive)

Question: And the GI50 (HOP-92)?
Answer: > 100 µM (inactive)

Question: What about the GI50 (HT-29) of the same compound?
Answer: > 100 µM (inactive)

Question: And the GI50 (Hs-578T)?
Answer: > 100 µM (inactive)

Question: What about the GI50 (IGROV-1) of the same compound?
Answer: > 100 µM (inactive)

Question: What about the GI50 (K562) of the same compound?
Answer: > 100 µM (inactive)

Question: And the GI50 (KM12)?
Answer: > 100 µM (inactive)

Question: What about the GI50 (LOX IMVI) of the same compound?
Answer: > 100 µM (inactive)

Question: And the GI50 (M14)?
Answer: > 100 µM (inactive)

Question: And the GI50 (MCF7)?
Answer: > 100 µM (inactive)

Question: And the GI50 (MDA-MB-231)?
Answer: > 100 µM (inactive)

Question: What about the GI50 (MDA-MB-435) of the same compound?
Answer: > 100 µM (inactive)

Question: What about the GI50 (MDA-N) of the same compound?
Answer: > 100 µM (inactive)

Question: And the GI50 (MOLT-4)?
Answer: > 100 µM (inactive)

Question: And the GI50 (NCI-H226)?
Answer: > 100 µM (inactive)

Question: And the GI50 (NCI-H23)?
Answer: > 100 µM (inactive)

Question: What about the GI50 (NCI/ADR-RES) of the same compound?
Answer: > 100 µM (inactive)

Question: And the GI50 (OVCAR-3)?
Answer: > 100 µM (inactive)

Question: And the GI50 (OVCAR-4)?
Answer: 15 µM (inactive)

Question: What about the GI50 (OVCAR-5) of the same compound?
Answer: > 100 µM (inactive)

Question: What about the GI50 (OVCAR-8) of the same compound?
Answer: > 100 µM (inactive)

Question: And the GI50 (PC-3)?
Answer: > 100 µM (inactive)

Question: What about the GI50 (RPMI-8226) of the same compound?
Answer: > 100 µM (inactive)

Question: And the GI50 (SF-268)?
Answer: > 100 µM (inactive)

Question: And the GI50 (SF-295)?
Answer: > 100 µM (inactive)

Question: What about the GI50 (SK-MEL-28) of the same compound?
Answer: > 100 µM (inactive)

Question: And the GI50 (SK-MEL-2)?
Answer: > 100 µM (inactive)

Question: And the GI50 (SK-MEL-5)?
Answer: > 100 µM (inactive)

Question: And the GI50 (SK-OV-3)?
Answer: > 100 µM (inactive)

Question: And the GI50 (SN12C)?
Answer: > 100 µM (inactive)

Question: What about the GI50 (SNB-19) of the same compound?
Answer: > 100 µM (inactive)

Question: And the GI50 (SNB-75)?
Answer: > 100 µM (inactive)

Question: What about the GI50 (SR) of the same compound?
Answer: > 100 µM (inactive)

Question: What about the GI50 (SW-620) of the same compound?
Answer: > 100 µM (inactive)

Question: What about the GI50 (U-251) of the same compound?
Answer: > 100 µM (inactive)

Question: What about the GI50 (UACC-257) of the same compound?
Answer: 16.3 µM (inactive)

Question: What about the GI50 (UACC-62) of the same compound?
Answer: > 100 µM (inactive)

Question: What about the GI50 (UO-31) of the same compound?
Answer: > 100 µM (inactive)

Question: With `C1=C(N2CCOCC2)/C(=C2\SC(=N/c3ccccc3)/C(=N\c3ccccc3)N2c2ccccc2)CC1` as the compound, how does the GI50 (A498) read?
Answer: 94.4 µM (inactive)

Question: What about the GI50 (CAKI-1) of the same compound?
Answer: 51.8 µM (inactive)

Question: What about the GI50 (CCRF-CEM) of the same compound?
Answer: 19.7 µM (inactive)

Question: What about the GI50 (COLO 205) of the same compound?
Answer: > 100 µM (inactive)

Question: And the GI50 (DU-145)?
Answer: > 100 µM (inactive)

Question: What about the GI50 (HCT-116) of the same compound?
Answer: > 100 µM (inactive)

Question: What about the GI50 (HCT-15) of the same compound?
Answer: > 100 µM

Question: And the GI50 (HL-60)?
Answer: > 10 µM (inactive)

Question: And the GI50 (HOP-62)?
Answer: 28.9 µM (inactive)

Question: And the GI50 (HOP-92)?
Answer: 34.8 µM (inactive)

Question: And the GI50 (HT-29)?
Answer: > 100 µM (inactive)

Question: And the GI50 (Hs-578T)?
Answer: 26.8 µM (inactive)

Question: What about the GI50 (IGROV-1) of the same compound?
Answer: > 100 µM (inactive)

Question: What about the GI50 (K562) of the same compound?
Answer: > 100 µM (inactive)

Question: And the GI50 (KM12)?
Answer: > 100 µM (inactive)

Question: And the GI50 (M14)?
Answer: 38.2 µM (inactive)

Question: What about the GI50 (MDA-MB-231) of the same compound?
Answer: 61.5 µM (inactive)

Question: And the GI50 (MDA-MB-435)?
Answer: > 100 µM (inactive)

Question: What about the GI50 (MDA-N) of the same compound?
Answer: > 100 µM (inactive)

Question: What about the GI50 (MOLT-4) of the same compound?
Answer: 20.9 µM (inactive)

Question: What about the GI50 (Malme-3M) of the same compound?
Answer: > 100 µM (inactive)

Question: And the GI50 (NCI-H23)?
Answer: > 100 µM (inactive)

Question: What about the GI50 (NCI-H460) of the same compound?
Answer: > 100 µM (inactive)

Question: And the GI50 (NCI-H522)?
Answer: 29 µM (inactive)

Question: What about the GI50 (NCI/ADR-RES) of the same compound?
Answer: > 100 µM (inactive)

Question: What about the GI50 (OVCAR-3) of the same compound?
Answer: 52.4 µM (inactive)

Question: And the GI50 (OVCAR-8)?
Answer: 62.5 µM (inactive)

Question: What about the GI50 (PC-3) of the same compound?
Answer: > 100 µM (inactive)

Question: And the GI50 (RPMI-8226)?
Answer: > 100 µM (inactive)

Question: What about the GI50 (SF-295) of the same compound?
Answer: 49.2 µM (inactive)

Question: And the GI50 (SK-MEL-28)?
Answer: 75.2 µM (inactive)

Question: And the GI50 (SK-MEL-2)?
Answer: 89.3 µM (inactive)

Question: What about the GI50 (SK-MEL-5) of the same compound?
Answer: > 100 µM (inactive)

Question: What about the GI50 (SK-OV-3) of the same compound?
Answer: 34.1 µM (inactive)

Question: What about the GI50 (SN12C) of the same compound?
Answer: > 100 µM (inactive)

Question: And the GI50 (SNB-75)?
Answer: 23.1 µM (inactive)

Question: And the GI50 (SR)?
Answer: 67.5 µM (inactive)

Question: And the GI50 (T47D)?
Answer: > 100 µM (inactive)

Question: And the GI50 (U-251)?
Answer: 68.4 µM (inactive)

Question: What about the GI50 (UACC-62) of the same compound?
Answer: 18.7 µM (inactive)

Question: With `NS(=O)(=O)c1ccc(/C=C/c2ccc(O)c(O)c2)cc1` as the compound, how does the GI50 (786-0) read?
Answer: 34.7 µM (inactive)

Question: And the GI50 (A498)?
Answer: 54.3 µM (inactive)

Question: What about the GI50 (COLO 205) of the same compound?
Answer: 21.2 µM (inactive)

Question: And the GI50 (DU-145)?
Answer: 68.7 µM (inactive)

Question: What about the GI50 (EKVX) of the same compound?
Answer: 21.2 µM (inactive)

Question: And the GI50 (HCC 2998)?
Answer: 18.7 µM (inactive)

Question: And the GI50 (HCT-116)?
Answer: 25.5 µM (inactive)

Question: What about the GI50 (HOP-62) of the same compound?
Answer: 47.2 µM (inactive)

Question: What about the GI50 (M14) of the same compound?
Answer: 26.5 µM (inactive)

Question: And the GI50 (MCF7)?
Answer: 20.8 µM (inactive)

Question: And the GI50 (MDA-MB-231)?
Answer: 19.6 µM (inactive)

Question: And the GI50 (MDA-N)?
Answer: 18.3 µM (inactive)

Question: What about the GI50 (Malme-3M) of the same compound?
Answer: 35.3 µM (inactive)

Question: What about the GI50 (NCI-H460) of the same compound?
Answer: 27.3 µM (inactive)

Question: What about the GI50 (NCI/ADR-RES) of the same compound?
Answer: 23.1 µM (inactive)

Question: What about the GI50 (OVCAR-3) of the same compound?
Answer: 31.6 µM (inactive)

Question: And the GI50 (OVCAR-5)?
Answer: 31.6 µM (inactive)

Question: What about the GI50 (PC-3) of the same compound?
Answer: 19.1 µM (inactive)

Question: And the GI50 (RXF 393)?
Answer: 69.3 µM (inactive)

Question: And the GI50 (SF-295)?
Answer: 29.8 µM (inactive)

Question: And the GI50 (SK-MEL-28)?
Answer: 23.2 µM (inactive)

Question: And the GI50 (SK-MEL-2)?
Answer: 22.5 µM (inactive)

Question: And the GI50 (SK-MEL-5)?
Answer: 10.8 µM (inactive)

Question: What about the GI50 (SK-OV-3) of the same compound?
Answer: 17.3 µM (inactive)

Question: What about the GI50 (SN12C) of the same compound?
Answer: 18.7 µM (inactive)

Question: And the GI50 (SNB-19)?
Answer: 34.4 µM (inactive)

Question: What about the GI50 (SNB-75) of the same compound?
Answer: 20.4 µM (inactive)

Question: And the GI50 (SW-620)?
Answer: 22 µM (inactive)

Question: And the GI50 (T47D)?
Answer: 14.5 µM (inactive)

Question: And the GI50 (TK-10)?
Answer: 60.7 µM (inactive)

Question: And the GI50 (UACC-257)?
Answer: 61.5 µM (inactive)

Question: And the GI50 (UO-31)?
Answer: 12.3 µM (inactive)
